Data: patent publication US7812022B2 (GlaxoSmithKline LLC, priority 2004, dated 2010)

Key:
Colo205 tumor cell lines = test: Methylene blue growth inhibition assay (cellular Method A), Colo205; assay type: cell-based, Human; settings: Homo sapiens, COLO 205, 72 h, 3 days, read-out: Activity (Method): growth inhibition IC50 class
Description: Human breast (BT474) and head and neck (HN5) were cultured in low glucose DMEM (Life Technologies 12320-032) containing 10% fetal bovine serum (FBS). Human colon tumor cells (Colo205) were cultured in DMEM (Invitrogen, 10564) containing 10% FBS. The SV40 transformed human mammary epithelial cell line HB4a was transfected with either human H-ras cDNA (HB4a r4.2) or the human c-ErbB2 cDNA (HB4a c5.2). The HB4a clones were cultured in RPMI containing 10% FBS, insulin (5 g/mL), hydrocortisone (5 g/mL), supplemented with the selection agent hygromycin B (50 g/mL). All lines were grown in a humidified incubator at 37° C. in 95% air, 5% CO2. Cells were harvested using trypsin/EDTA, counted using a haemocytometer, and plated in 100 microliters of the appropriate media, at the following densities, in a 96-well tissue culture plate (Falcon 3075): BT474 10,000 cells/well, HN5 3,000 cells/well. The next day, compounds were diluted in DMEM containing […] gentamicin, at twice the final required concentration, from 10 mM stock solutions in DMSO. 100 microliters/well of these dilutions were added to the 100 microliters of media currently on the cell plates. Medium containing 0.6% DMSO was added to control wells. Compounds diluted in DMEM were added to all cell lines. The final concentration of DMSO in all wells was 0.3%. Cells were returned to the incubator (37° C., 10% CO2) for 3 days. Medium was then removed by aspiration. Cell biomass was estimated by staining cells with 90 microliters per well methylene blue (Sigma M9140, 0.5% in 1:1 ethanol:water), and incubation at rt for at least 30 minutes. Stain was removed, and the plates rinsed by immersion in deionized water and air-dried. To release stain from the cells 100 microliters of solubilization solution was added (1% N-lauroyl sarcosine, Sodium salt, Sigma L5125, in PBS), and plates were shaken gently for about 30 minutes. Optical density at 620 nm was measured on a microplate reader. Percent inhibition of cell growth was calculated relative to vehicle treated control wells. Concentration of compound that inhibits 50% of control cell growth (IC50) was interpolated using nonlinear regression (Levenberg-Marquardt) and the equation, y=Vmax*(1−(x/(K+x)))+Y2, where “K” was equal to the IC50. Method B: Celltiter Glo® Growth Inhibition Assays

[1] = system: BT474 and HN5 tumor cell lines; test: Methylene blue growth inhibition assay (cellular Method A); assay type: cell-based, Human; settings: Homo sapiens, BT-474, 72 h, 3 days, read-out: Activity (Method): growth inhibition IC50 class
How it was run: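 Colo205, BT474 and HN5 cells in DMEM/10% FBS (BT474 10,000, HN5 3,000 cells/well) treated next day with compound in DMEM, 0.3% final DMSO, for 3 days at 37° C. Biomass stained with methylene blue, solubilized, read at OD 620; IC50 interpolated by nonlinear regression from % inhibition versus vehicle.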

ErbB2 or EGFR = target: T1, ErbB2 or EGFR; test: ErbB family substrate phosphorylation enzyme assay (HTRF), Method A or Method B; assay type: biochemical
T1 construct: enzymes purified from a baculovirus expression system; Reagent production was conducted essentially as described in Brignola, P. S., et al, (2002) J. Biol. Chem. 277(2): 1576-1585
How it was run: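 Baculovirus-expressed EGFR or ErbB2 (0.8 or 10 nM in enzyme mix) phosphorylates biotinylated Peptide C with 20 µM ATP and 0.8 µM peptide (substrate-mix levels), MnCl2, pH 7.5. Reaction ran 90 min at 20 °C with EDTA stop and HTRF anti-phosphotyrosine read. Method A: enzyme added last; Method B: 1 h enzyme–compound preincubation.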

[2] = Method B: enzyme mix pre-incubated with compound 1 hour at 20° C., started with substrate mix
[3] = Method A: substrate mix added first, reaction started with enzyme mix

SMILES	IC50 (Colo205 tumor cell lines)	IC50 [1]	Activity (Method): pIC50 class against ErbB2 or EGFR (ErbB2 or EGFR; [2])	Activity (Method): pIC50 class against ErbB2 or EGFR (ErbB2 or EGFR; [3])
O=C(Nc1cccc(-c2nn3ccccc3c2-c2ccnc(Nc3cccc(CCCN4CCOCC4)c3)n2)c1)c1c(F)cccc1F [Example 55, 2,6-Difluoro-N-(3-{3-[2-({3-[3-(4-morpholinyl)propyl]-phenyl}amino)-4-pyrimidinyl]pyrazolo[1,5-a]pyridin-2-yl}phenyl)benzamide]	100 to 1000 nM	< 100 nM	+++ (B) (at least one pIC50 measurement of greater than 7 against either ErbB2 or EGFR)	
CN1CCN(Cc2cccc(Nc3nccc(-c4c(-c5cccc(NC(=O)c6c(F)cccc6F)c5)nn5ccccc45)n3)c2)CC1 [Example 57, 2,6-Difluoro-N-(3-{3-[2-({3-[(4-methyl-1-piperazinyl)-methyl]phenyl}amino)-4-pyrimidinyl]pyrazolo[1,5-a]pyridin-2-yl}phenyl)benzamide]	100 to 1000 nM	< 100 nM	+++ (B) (at least one pIC50 measurement of greater than 7 against either ErbB2 or EGFR)	
O=C(Nc1cccc(-c2nn3ccccc3c2-c2ccnc(Nc3cccc(S(=O)(=O)CCO)c3)n2)c1)c1c(F)cccc1F [Example 58, 2,6-Difluoro-N-(3-{3-[2-({3-[(2-hydroxyethyl)sulfonyl]-phenyl}amino)-4-pyrimidinyl]pyrazolo[1,5-a]pyridin-2-yl}phenyl)benzamide]	> 1000 nM	< 100 nM	+++ (B) (at least one pIC50 measurement of greater than 7 against either ErbB2 or EGFR)	
CN(C)CCOc1cccc(Nc2nccc(-c3c(-c4cccc(NC(=O)c5c(F)cccc5F)c4)nn4ccccc34)n2)c1 [Example 61, N-[3-(3-{2-[(3-{[2-(Dimethylamino)ethyl]oxy}-phenyl)amino]-4-pyrimidinyl}pyrazolo[1,5-a]pyridin-2-yl)phenyl]-2,6-difluorobenzamide]	100 to 1000 nM	< 100 nM	+++ (B) (at least one pIC50 measurement of greater than 7 against either ErbB2 or EGFR)	
O=C(Nc1cccc(-c2nn3ccccc3c2-c2ccnc(Nc3ccc4c(c3)CNCC4)n2)c1)c1ccccc1 [Example 62, N-(3-{3-[2-(1,2,3,4-Tetrahydro-7-isoquinolinylamino)-4-pyrimidinyl]pyrazolo[1,5-a]pyridin-2-yl}phenyl)benzamide]	> 1000 nM	< 100 nM	+++ (B) (at least one pIC50 measurement of greater than 7 against either ErbB2 or EGFR)	
Cc1ccc(F)cc1C(=O)Nc1cccc(-c2nn3ccccc3c2-c2ccnc(Nc3cccc(F)c3)n2)c1 [Example 83, 5-Fluoro-N-[3-(3-{2-[(3-fluorophenyl)amino]-4-pyrimidinyl}pyrazolo[1,5-a]pyridin-2-yl)phenyl]-2-methylbenzamide]	> 1000 nM	100 to 1000 nM		++ (A) (at least one pIC50 measurement greater than 6 against either ErbB2 or EGFR but no measurement greater than pIC50 of 7)
Cn1cncc1C(=O)Nc1cccc(-c2nn3ccccc3c2-c2ccnc(Nc3cccc(F)c3)n2)c1 [Example 84, N-[3-(3-{2-[(3-fluorophenyl)amino]-4-pyrimidinyl}-pyrazolo[1,5-a]pyridin-2-yl)phenyl]-1-methyl-1H-imidazole-5-carboxamide]	> 1000 nM	> 1000 nM	+++ (B) (at least one pIC50 measurement of greater than 7 against either ErbB2 or EGFR)	
O=C(Nc1cccc(-c2nn3ccccc3c2-c2ccnc(Nc3ccc(O)c(Cl)c3)n2)c1)c1c(F)cccc1F [Example 86, N-[3-(3-{2-[(3-Chloro-4-hydroxyphenyl)amino]-4-pyrimidinyl}pyrazolo[1,5-a]pyridin-2-yl)phenyl]-2,6-difluorobenzamide]	> 1000 nM	< 100 nM		+++ (A) (at least one pIC50 measurement of greater than 7 against either ErbB2 or EGFR)
COc1ccc(Nc2nccc(-c3c(-c4cccc(NC(=O)c5c(F)cccc5F)c4)nn4ccccc34)n2)cc1Cl [Example 87, N-{3-[3-(2-{[3-Chloro-4-(methyloxy)phenyl]amino}-4-pyrimidinyl)pyrazolo[1,5-a]pyridin-2-yl]phenyl}-2,6-difluorobenzamide]	100 to 1000 nM	< 100 nM		+++ (A) (at least one pIC50 measurement of greater than 7 against either ErbB2 or EGFR)
O=C(Nc1cccc(-c2nn3ccccc3c2-c2ccnc(Nc3ccc(Cc4ccncc4)cc3)n2)c1)c1c(F)cccc1F [Example 94]	> 1000 nM	< 100 nM		+++ (A) (at least one pIC50 measurement of greater than 7 against either ErbB2 or EGFR)
CN(C)CCOc1ccc(Nc2nccc(-c3c(-c4cccc(NC(=O)c5c(F)cccc5F)c4)nn4ccccc34)n2)cc1 [Example 105, N-[3-(3-{2-[(4-{[2-(dimethylamino)ethyl]oxy}phenyl)-amino]-4-pyrimidinyl}pyrazolo[1,5-a]pyridin-2-yl)phenyl]-2,6-difluorobenzamide]	< 100 nM	< 100 nM	+++ (B) (at least one pIC50 measurement of greater than 7 against either ErbB2 or EGFR)	

Further lines, with some results ahead:

IC50 (Colo205 tumor cell lines)	IC50 [1]	SMILES	Activity (Method): pIC50 class against ErbB2 or EGFR (ErbB2 or EGFR; [2])	Activity (Method): pIC50 class against ErbB2 or EGFR (ErbB2 or EGFR; [3])
100 to 1000 nM	< 100 nM	O=C(Nc1cccc(-c2nn3ccccc3c2-c2ccnc(Nc3ccc(CCN4CCOCC4)cc3)n2)c1)c1c(F)cccc1F [Example 56, 2,6-Difluoro-N-(3-{3-[2-({4-[2-(4-morpholinyl)ethyl]-phenyl}amino)-4-pyrimidinyl]pyrazolo[1,5-a]pyridin-2-yl}phenyl)benzamide]	+++ (B) (at least one pIC50 measurement of greater than 7 against either ErbB2 or EGFR)	
> 1000 nM	< 100 nM	O=C(Nc1cccc(-c2nn3ccccc3c2-c2ccnc(Nc3cccc(O)c3)n2)c1)c1c(F)cccc1F [Example 59, 2,6-Difluoro-N-[3-(3-{2-[(3-hydroxyphenyl)amino]-4-pyrimidinyl}pyrazolo[1,5-a]pyridin-2-yl)phenyl]benzamide]	+++ (B) (at least one pIC50 measurement of greater than 7 against either ErbB2 or EGFR)	
100 to 1000 nM	< 100 nM	O=C(Nc1cccc(-c2nn3ccccc3c2-c2ccnc(Nc3cccc(OCCN4CCOCC4)c3)n2)c1)c1c(F)cccc1F [Example 60, 2,6-Difluoro-N-[3-(3-{2-[(3-{[2-(4-morpholinyl)ethyl]-oxy}phenyl)amino]-4-pyrimidinyl}pyrazolo[1,5-a]pyridin-2-yl)phenyl]benzamide]	+++ (B) (at least one pIC50 measurement of greater than 7 against either ErbB2 or EGFR)	
100 to 1000 nM	< 100 nM	CN1CCN(c2ccc(Nc3nccc(-c4c(-c5cccc(NC(=O)c6c(F)cccc6F)c5)nn5ccccc45)n3)cc2)CC1 [Example 91]	+++ (B) (at least one pIC50 measurement of greater than 7 against either ErbB2 or EGFR)	
100 to 1000 nM	< 100 nM	O=C(NC1CC1)c1ccc(Nc2nccc(-c3c(-c4cccc(NC(=O)c5c(F)cccc5F)c4)nn4ccccc34)n2)cc1 [Example 103, N-(3-{3-[2-({4-[(cyclopropylamino)carbonyl]phenyl}-amino)-4-pyrimidinyl]pyrazolo[1,5-a]pyridin-2-yl}phenyl)-2,6-difluorobenzamide]	+++ (B) (at least one pIC50 measurement of greater than 7 against either ErbB2 or EGFR)	
